# Measured values published in US20100273700A1, “USE OF A PEPTIDE AS A THERAPEUTIC AGENT” (priority 2007, published 2010).
# Columns and labels:
# [1] = system: CEM-SS cells; experiment: Cytotoxicity in the HIV-1 assay (MTS cell viability); settings: CEM-SS cells plus peptide only; peptide 10 micrograms per ml; MTS
# [2] = system: Human Peripheral Blood Mononuclear Cells (PBMC); experiment: B cell proliferation assay (SAC plus Interleukin-2, 3H-thymidine); assay type: cell-based; settings: 10 micrograms per ml, 3H-thymidine incorporation
# [3] = system: HCMV strain AD169; experiment: HCMV plaque reduction assay; assay type: cell-based; settings: MRC-5 cells; peptide 10 micrograms per ml; 7-10 days
# Source text: Ganciclovir was used as positive control.
# [4] = system: TNF alpha; experiment: TNF alpha production assay (LPS-stimulated macrophages, ELISA); assay type: cell-based, human; settings: 10 micrograms per ml, lipopolysaccharide 200 ng/ml, overnight
# Source text: Not stimulated macrophages served as negative background control.
# [5] = system: Primary Human endothelial cells (HUVEC); experiment: Endothelial cell migration assay; assay type: cell-based; settings: 10 micrograms per ml, 22 hours
# [6] = system: Interleukin-2 (IL-2); experiment: Th1/Th2 cytokine profiling assay: IL-2; assay type: cell-based, Balb/c mice; settings: Ovalbumin-restimulated spleen cells; 10 micrograms per ml; 72 hours
# Source text: (§1) The Balb/c mice (originated in 1923, it is a popular strain and is used in many different research disciplines. Also classified as an inbred from the production of 20 or more successive brother-sister matings, the Balb/c mouse is albino and small in size) were immunized on Days 1, 15, and 29 with Ovalbumin (Ovalbumin is the main protein found in egg white, commonly used to stimulate an immunological reaction in test animals) in PBS (5 micrograms/injection). On day 50, spleens of the mice were harvested (3 weeks after last boost with Ovalbumin). Cells were cultured (2×10^5/well in triplicate) and incubated with culture medium or test peptide—10 micrograms per ml—for 30 min. Thereafter, additional Ovalbumin was added to the cells at 10 micrograms/ml for in vitro restimulation of the cells. 72 hours later, cell supernatants were harvested and assayed using the Becton Dickinson Mouse Th1/Th2 Cytokine CBA Kit.
# [7] = system: Interferon-γ (IFN-γ); experiment: Th1/Th2 cytokine profiling assay: IFN-γ; assay type: cell-based, Balb/c mice; settings: Ovalbumin-restimulated spleen cells; 10 micrograms per ml; 72 hours
# Source text: as §1
# [8] = system: hepatitis B virus (HBV) ayw strain in HepG2-2.2.15 cells; experiment: HBV experimental assay system (secreted HBV DNA, TaqMan PCR); assay type: cell-based; settings: test peptide 10 micrograms per ml; six days; HBV DNA in supernatant
# [9] = system: Human Peripheral Blood Mononuclear Cells (PBMC); experiment: T cell proliferation assay (PHA, 3H-thymidine); assay type: cell-based; settings: 10 micrograms per ml, 3H-thymidine incorporation
# [10] = system: Interleukin-5 (IL-5); experiment: Th1/Th2 cytokine profiling assay: IL-5; assay type: cell-based, Balb/c mice; settings: Ovalbumin-restimulated spleen cells; 10 micrograms per ml; 72 hours
# Source text: as §1
# [11] = system: A549 cells; experiment: Apoptosis induction assay (Annexin-5); assay type: cell-based, Human; settings: 24 hours exposure
# Experimental: Human A549 cells (carcinomic human alveolar basal epithelial cells) were utilized in the experiments employing the Annexin-5 apoptosis assay. […] Test peptide-micrograms per ml—were exposed for 24 hours to the A549 cells before they were analyzed for signs of apoptosis.
# [12] = Cytotoxicity in the HBV assay (dye uptake cell viability); assay type: cell-based; settings: human; HepG2-2.2.15 cells; test peptide 10 micrograms per ml; dye uptake assay (% cell control)
# [13] = system: Interleukin-4 (IL-4); experiment: Th1/Th2 cytokine profiling assay: IL-4; assay type: cell-based, Balb/c mice; settings: Ovalbumin-restimulated spleen cells; 10 micrograms per ml; 72 hours
# Source text: as §1
# [14] = system: RAW 264.7 cells; experiment: Phagocytosis assay (Fluorescein-labeled Escherichia coli); assay type: cell-based, Mouse; settings: 10 micrograms per ml, flow cytometry
# [15] = system: A549 cells; experiment: Apoptosis prevention assay (C2 ceramide, Annexin-5); assay type: cell-based, Human; settings: A549 cells pretreated 30 min, 10 micrograms per ml
# [16] = Cytotoxicity testing in MRC-5 cells (CellTiter 96); settings: human, MRC-5 cells (embryonal lung fibroblasts)
# [17] = system: A549 cells; experiment: Propidium iodide cell cycle assay; assay type: cell-based, Human; settings: 10 micrograms per ml, 24 hours, FACS
# [18] = Cytotoxicity in the HIV-1 assay (MTS cell viability); settings: human, CEM-SS cells (uninfected, cells plus peptide only)
# [19] = system: Pseudomonas aeruginosa; experiment: Pseudomonas aeruginosa assay; assay type: cell-based; settings: peptide 10 micrograms per ml, read visually
# [20] = system: Tumor Necrosis Factor-α (TNF-α); experiment: Th1/Th2 cytokine profiling assay: TNF-α; assay type: cell-based, Balb/c mice; settings: Ovalbumin-restimulated spleen cells; 10 micrograms per ml; 72 hours
# Source text: as §1
# [21] = system: HUVEC; experiment: Endothelial tube formation assay; assay type: cell-based, Human; settings: 10 micrograms per ml, 20 hours
# Source text: Positive control was vehicle only.
# [22] = system: Streptococcus pneumoniae; experiment: Streptococcus pneumoniae assay; assay type: cell-based; settings: peptide 10 micrograms per ml, read visually
# Source text: Results from Streptococcus pneumoniae assay:
# [23] = system: MRSA; experiment: Methicillin Resistant Staphylococcus Aureus (MRSA) assay; assay type: cell-based; settings: peptide 10 micrograms per ml, read visually
smiles,measurement,setting,value
"Cc1cn([C@H]2C[C@H](N=[N+]=[N-])[C@@H](CO)O2)c(=O)[nH]c1=O [AZT, reference compound]",% Cell viability,[1],97%
CC(C)C[C@H](NC(=O)[C@H](Cc1ccccc1)NC(=O)CNC(=O)CNC(=O)[C@@H](N)Cc1ccc(O)cc1)C(=O)N[C@@H](CCCNC(=N)N)C(=O)N[C@@H](CCCNC(=N)N)C(=O)N[C@@H](CCC(N)=O)C(=O)N[C@@H](Cc1ccccc1)C(=O)N[C@@H](CCCCN)C(=O)N[C@H](C(=O)N[C@H](C(=O)N[C@H](C(=O)O)[C@@H](C)O)C(C)C)C(C)C [Dynorphin B],% of SAC/IL2 induced control,[2],104.8%
same,% plaque reduction,[3],1.0%
same,% of LPS induction,[4],97.8%
same,% inhibition of migration,[5],57%
same,IL-2 spleen cells (% of control),[6],134.2 % of control
same,IFNγ spleen cells; TH1 response (% of control),[7],73.9 % of control
same,% inhibition of HBV replication in HEP G2 cells,[8],45.7%
same,% of PHA induced control,[9],107.1%
same,IL-5 spleen cells; TH2 response (% of control),[10],82.0 % of control
same,% of induction,[11],1.2%
same,"viability at 144 h, 10 micrograms per ml",[12],89.7%
same,IL-4 spleen cells; TH2 response (% of control),[13],208.2 % of control
same,% of control phagocytosis,[14],102.9%
same,% prevention of ceramide induced apoptosis,[15],0.0%
same,viability at 144 h,[16],100%
same,Cell cycle analysis G0/G1,[17],59.5
same,Cell cycle analysis G2/M,[17],8.3
same,Cell cycle analysis S,[17],32.2
same,viability at 10 micrograms per ml,[18],37%
same,% Cell viability,[1],toxic
same,% inhibition,[19],0.0%
same,TNF-a spleen cells; TH1 response (% of control),[20],105.2 % of control
same,% inhibition of tube formation,[21],11%
same,% inhibition,[22],100.0%
same,% inhibition,[23],0.0%
